Assay results: PMC4266903, “Hydroxylation index of omeprazole in relation to CYP2C19 polymorphism and sex in a healthy Iranian population” (DARU Journal of Pharmaceutical Sciences, 2014)
Where two headings read alike, the source gives them in different places.

Experiments:
[1] = Plasma concentration of omeprazole and hydroxyomeprazole by HPLC 3 hours after a single oral 20 mg omeprazole dose; assay type: in vivo, human; details: for Mean OH-OMP concentration ± SD / concentration at 3 h: plasma, 3 h after single oral 20 mg omeprazole; for concentration at 3 h: human, po, 20 mg, read-out: Mean OMP concentration ± SD
From the text: (§1) The study protocol was approved by ethics committee of Tehran University of Medical Sciences (ethical no. 11208). Generally one hundred and eighty (60 women and 120 men) unrelated healthy Iranian volunteers with the mean age of between 20–55 years and average body weight of 45–89 kg took part in this study. All participants signed written informed consent of this project. The study was completed by contribution of faculties of pharmacy of Tehran, Yazd, Kermanshah and Kerman University of Medical Sciences. The participants were students or stuffs of pharmacy schools, with no history of any illness or medicine consumption. No smoking and consumption of medicine that would affect CYP2C19 activity was permitted for one week before and during the study.
(§2) After an overnight fast for at least 8 hours, volunteers took 20 mg omeprazole capsule (Abidi pharmaceuticals) with 250 milliliter tap water. Ten ml venous blood sample was collected from each subject 3 hours after administration of omeprazole and transferred into tubes containing 10 μl of 10% EDTA. Five ml of blood samples were centrifuged for 5 min at 4000 rpm and the plasma was separated and transferred to Eppendorf tube and stored at −80°C up to the day of analysis. The other 5 ml blood samples were stored directly in −80°C for genotyping analysis.
(§3) Omeprazole powder was purchased from TMAD (Iran). 5-hydroxyomeprazole was a kind donation by AstraZeneca (Sweden). The concentration of omeprazole and 5-hydroxyomeprazole was analyzed by HPLC method as described by Rezk et al. with a few modifications. Briefly 500 μl plasma was extracted by liquid-liquid extraction using 1500 μl ethyl acetate. After orbital mixing for 10 min and centrifuging at 4000 × g for 10 min, the upper organic layer was separated and transferred to glass tube and then evaporated to dryness under gentle stream of air. Finally the residue was dissolved in 250 μl mobile phase and 100 μl of this sample was injected to HPLC system. The mobile phase was a combination of dibasic sodium phosphate buffer (0.025 mol/lit, pH 6): acetonitrile: methanol (73: 18: 8 V/V/V). The HPLC apparatus consisted of a low pressure HPLC pump, UV detector (λ = 302 nm) all from Knauer (Berlin, Germany). The chromatographic separation was performed by using Chromolit™ Performance RP-18e 100 mm × 4.6 mm, 5 μm particle size. Flow rate was adjusted to 1 ml/min.

[2] = system: CYP2C19; details: cited from earlier work
[3] = system: CYP2C19; test: Omeprazole hydroxylation index (omeprazole/hydroxyomeprazole in plasma) as measure of CYP2C19 activity; assay type: in vivo, human; design: key to Median hydroxylation index / Median hydroxylation index (HI) / Mean HI ± SD: ratio: plasma omeprazole / 5-hydroxyomeprazole concentration at 3 h; details: for Mean HI ± SD: 3 h after single oral 20 mg omeprazole; for Median hydroxylation index: all genotypes
From the text: as §1, §2, §3
(§4) The allele frequencies differences between population were estimated using two-tailed Fisher’s exact test. The 95% confidence intervals (CI) were calculated using Confidence Interval Analysis software. The relation of sex and genotype was assessed by two tailed Fisher’s exact test. The observed and expected frequencies were calculated by using Hardy-Weinberg equation. The two-tailed Fisher’s exact test was used to evaluate deviation of genotype frequencies in the studied population from Hardy-Weinberg equilibrium. The enzyme activity was compared by using omeprazole hydroxylation index. The hydroxylation index (HI) of omeprazole 3 hours after administration of omeprazole was calculated by dividing omeprazole to 5-hydroxyomeprazol plasma concentration. The mean HI in different genotypes were compared by Mann–Whitney two tailed test. The impact of sex on HI of omeprazole was also evaluated using Mann–Whitney two tailed test. The inter-individual variability in metabolism of omeprazole was represented by probit plot. For drawing probit plot, the log of HI was calculated, the antimode value was determined using Microsoft office excel 2010. The normality of HI distribution was analyzed by frequency distribution histogram and also by Kolmogorov- Smirnov test. All statistical analyses were performed by Sigma Plot version 12.0 and Graph Pad Prism version 5 softwares and P < 0.05 was considered as statistically significant difference.

[4] = target: T1, CYP2C19 (Homo sapiens, UniProt P33261); test: as above; assay type: in vivo; design: key to Median hydroxylation index / Median hydroxylation index (HI) / Mean HI ± SD: ratio: plasma omeprazole / 5-hydroxyomeprazole concentration at 3 h
T1 construct: volunteers took 20 mg omeprazole capsule (Abidi pharmaceuticals) with 250 milliliter tap water; from tissue; host or cells: in vivo, endogenous enzyme of healthy human volunteers; metabolites measured in plasma
From the text: as §1, §2, §3, §4

[5] = design: method as in PMID 20804307; details: Iranian patients with erosive reflux esophagitis, cited from earlier work

T1 sequence (P33261 whole entry): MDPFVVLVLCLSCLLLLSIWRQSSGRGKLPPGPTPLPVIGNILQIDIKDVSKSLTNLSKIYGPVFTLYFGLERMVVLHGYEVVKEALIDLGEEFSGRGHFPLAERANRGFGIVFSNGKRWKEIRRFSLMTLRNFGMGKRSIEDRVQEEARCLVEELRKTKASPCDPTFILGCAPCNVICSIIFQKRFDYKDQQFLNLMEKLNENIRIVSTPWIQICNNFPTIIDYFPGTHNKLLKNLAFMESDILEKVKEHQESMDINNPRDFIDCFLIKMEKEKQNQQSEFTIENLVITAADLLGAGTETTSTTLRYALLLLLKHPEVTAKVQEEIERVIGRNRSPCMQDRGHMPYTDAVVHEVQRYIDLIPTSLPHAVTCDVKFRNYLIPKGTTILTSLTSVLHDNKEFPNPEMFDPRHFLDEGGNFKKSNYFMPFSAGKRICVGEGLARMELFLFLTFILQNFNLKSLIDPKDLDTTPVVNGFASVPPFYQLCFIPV

## COc1ccc2nc([S+]([O-])Cc3ncc(CO)c(OC)c3C)[nH]c2c1 (stereo not shown) [hydroxyomeprazole, 5-hydroxyomeprazole]
[1]; 60 women vs 120 men, P > 0.05
  Hydroxyomeprazole plasma concentration, women compared with men: not statistically different
[1]; genotype 1*1, Men (53)
  Mean OH-OMP concentration ± SD: 151.01 ± 26.38 ng/mL
[1]; genotype 1*1, Total (75)
  Mean OH-OMP concentration ± SD: 163.74 ± 32.25 ng/mL
[1]; genotype 1*1, Women (22)
  Mean OH-OMP concentration ± SD: 194.40 ± 60.84 ng/mL
[1]; genotype 1*2, Men (20)
  Mean OH-OMP concentration ± SD: 165.53 ± 23.55 ng/mL
[1]; genotype 1*2, Total (33)
  Mean OH-OMP concentration ± SD: 177.79 ± 38.39 ng/mL
[1]; genotype 1*2, Women (13)
  Mean OH-OMP concentration ± SD: 194.66 ± 52.56 ng/mL
[1]; genotype 1*17, Men (37)
  Mean OH-OMP concentration ± SD: 178.07 ± 44.57 ng/mL
[1]; genotype 1*17, Total (52)
  Mean OH-OMP concentration ± SD: 177.05 ± 37.53 ng/mL
[1]; genotype 1*17, Women (15)
  Mean OH-OMP concentration ± SD: 174.51 ± 28.01 ng/mL
[1]; genotype 2*2, Men (1)
  Mean OH-OMP concentration ± SD: 103.58 ng/mL
[1]; genotype 2*2, Total (4)
  Mean OH-OMP concentration ± SD: 104.67 ± 10.55 ng/mL
[1]; genotype 2*2, Women (3)
  Mean OH-OMP concentration ± SD: 105.03 ± 13.80 ng/mL
[1]; genotype 2*17, Men (2)
  Mean OH-OMP concentration ± SD: 169.82 ± 84.95 ng/mL
[1]; genotype 2*17, Total (6)
  Mean OH-OMP concentration ± SD: 172.79 ± 63.58 ng/mL
[1]; genotype 2*17, Women (4)
  Mean OH-OMP concentration ± SD: 178.72 ± 33.59 ng/mL
[1]; genotype 17*17, Men (5)
  Mean OH-OMP concentration ± SD: 201.69 ± 32.08 ng/mL
[1]; genotype 17*17, Total (10)
  Mean OH-OMP concentration ± SD: 203.31 ± 34.93 ng/mL
[1]; genotype 17*17, Women (5)
  Mean OH-OMP concentration ± SD: 204.92 ± 41.35 ng/mL

## COc1ccc2[nH]c([S+]([O-])Cc3ncc(C)c(OC)c3C)nc2c1 (stereo not shown) [omeprazole]
[1]; 60 women vs 120 men, P > 0.05
  Omeprazole plasma concentration, women compared with men: not statistically different
[1]; *2*2 vs *1*1, P < 0.001
  Mean omeprazole plasma concentration, fold higher in CYP2C19*2*2 than CYP2C19*1*1: 11 fold
[1]; *2*2 vs *17*17, P < 0.001
  Mean omeprazole plasma concentration, fold higher in CYP2C19*2*2 than CYP2C19*17*17: 19.0 fold
[1]; both sexes, genotype 1*1, Total (75)
  concentration at 3 h: 125 ± 27.2 ng/mL
[1]; both sexes, genotype 1*2, Total (33)
  concentration at 3 h: 319 ± 150 ng/mL
[1]; both sexes, genotype 1*17, Total (52)
  concentration at 3 h: 118 ± 10.2 ng/mL
[1]; both sexes, genotype 2*2, Total (4)
  concentration at 3 h: 1390 ± 123 ng/mL
[1]; both sexes, genotype 2*17, Total (6)
  concentration at 3 h: 289 ± 97.5 ng/mL
[1]; both sexes, genotype 17*17, Total (10)
  concentration at 3 h: 71 ± 10.3 ng/mL
[1]; female, genotype 1*1, Women (22)
  concentration at 3 h: 128 ± 39.9 ng/mL
[1]; female, genotype 1*2, Women (13)
  concentration at 3 h: 365 ± 265 ng/mL
[1]; female, genotype 1*17, Women (15)
  concentration at 3 h: 120 ± 20.1 ng/mL
[1]; female, genotype 2*2, Women (3)
  concentration at 3 h: 1360 ± 133 ng/mL
[1]; female, genotype 2*17, Women (4)
  concentration at 3 h: 324 ± 39.9 ng/mL
[1]; female, genotype 17*17, Women (5)
  concentration at 3 h: 68.3 ± 5.73 ng/mL
[1]; male, genotype 1*1, Men (53)
  concentration at 3 h: 123 ± 20.8 ng/mL
[1]; male, genotype 1*2, Men (20)
  concentration at 3 h: 290 ± 168 ng/mL
[1]; male, genotype 1*17, Men (37)
  concentration at 3 h: 117 ± 16.1 ng/mL
[1]; male, genotype 2*2, Men (1)
  concentration at 3 h: 1480 ng/mL
[1]; male, genotype 2*17, Men (2)
  concentration at 3 h: 271 ± 119 ng/mL
[1]; male, genotype 17*17, Men (5)
  concentration at 3 h: 73.7 ± 13.7 ng/mL
[2]; Colombians
  Antimode for HI of omeprazole: 0.63
[2]; Indian
  Antimode for HI of omeprazole: 14.4
[2]; Koreans
  Antimode for HI of omeprazole: 7.0
[2]; Ramsjö et al.
  Mean HI, fold higher in CYP2C19*1*1 than CYP2C19*1*17: 1.1 fold
  Mean HI, fold higher in CYP2C19*1*1 than CYP2C19*17*17: 3.2 fold
[2]; Sim et al.
  Median HI, fold higher in homozygous CYP2C19*1 than CYP2C19*1*17 carriers: 1.2 fold
  Median HI, fold higher in homozygous CYP2C19*1 than homozygous CYP2C19*17 carriers: 2 fold
[2]; Thai population
  Antimode for HI of omeprazole: 7.0
[2]; West Mexicans
  Antimode for HI of omeprazole: 3.98
[3]; 60 women vs 120 men, P > 0.05
  Omeprazole HI, women compared with men: not statistically different
[3]; *1*1 vs *17*17, P < 0.001
  Median HI, fold higher in CYP2C19*1 homozygous than in CYP2C19*17 homozygous subjects: 2.17 fold
[3]; *1*17 vs *17*17, P < 0.001
  Median HI, fold higher in CYP2C19*1*17 than in CYP2C19*17*17 subjects: 1.97 fold
[3]; genotype 1*1, Men (53)
  Mean HI ± SD: 0.89 ± 0.30
[3]; genotype 1*1, Women (22)
  Mean HI ± SD: 0.78 ± 0.27
[3]; genotype 1*2, Men (20)
  Mean HI ± SD: 2.29 ± 1.19
[3]; genotype 1*2, Women (13)
  Mean HI ± SD: 2.24 ± 0.79
[3]; genotype 1*17, Men (37)
  Mean HI ± SD: 0.77 ± 0.32
[3]; genotype 1*17, Women (15)
  Mean HI ± SD: 0.72 ± 0.18
[3]; genotype 2*2, Men (1)
  Mean HI ± SD: 14.25
[3]; genotype 2*2, Women (3)
  Mean HI ± SD: 13.37 ± 3.80
[3]; genotype 2*17, Men (2)
  Mean HI ± SD: 2.05 ± 0.67
[3]; genotype 2*17, Women (4)
  Mean HI ± SD: 1.97 ± 0.62
[3]; genotype 17*17, Men (5)
  Mean HI ± SD: 0.36 ± 0.04
[3]; genotype 17*17, Women (5)
  Mean HI ± SD: 0.34 ± 0.08
[3]; men (120)
  Median hydroxylation index: 0.86
[3]; women (60)
  Median hydroxylation index: 0.84
[4]; CYP2C19 *1*1, 3 h after 20 mg omeprazole orally
  Median hydroxylation index (HI): 0.78
[4]; CYP2C19 *1*17, 3 h after 20 mg omeprazole orally
  Median hydroxylation index (HI): 0.71
[5]; EM genotype
  Successful treatment response: 43%
[5]; HetEM genotype
  Successful treatment response: 95%
